{
  "source": "paper PMC12275099",
  "about": "“VX-445 (elexacaftor) inhibits chloride secretion across human bronchial epithelial cells by directly blocking KCa3.1 channels” (PNAS Nexus, 2025)",
  "key": {"[1]": {"system": "BKCa (KCa1.1, KCNMA1) channels", "set-up": "method as in PMID 38954478", "conditions": "primary HBEs and HEK cells heterologously expressing the channel; cited from earlier work"}, "[2]": {"biological_target": "T1, KCa3.1 (Homo sapiens, UniProt O15554)", "T1 construct": "expressed in transfected cells", "test": "Whole-cell patch-clamp on HEK cells heterologously expressing KCa3.1", "format": "cell-based", "conditions": "for effect on KCa3.1 current: 10 µM, data not shown", "procedure": "(§1) Our Isc results are consistent with VX-445 inhibiting KCa3.1 in HBEs. To directly assess this possibility, we initially carried out whole-cell patch-clamp studies on undifferentiated HBEs. […] Upon application of 10 µM VX-445, a majority of this current was inhibited, averaging 87 ± 4% (n = 3, P < 0.005; Fig. 3B). A summary of the current–voltage (I–V) relationship—normalized to cell capacitance—is shown in Fig. 3C, which also includes the whole-cell I–V in the presence of Tram-34. […] To ensure isolation of KCa3.1 currents and to more fully characterize this VX-445-dependent inhibition of KCa3.1, we utilized HEK cells heterologously expressing KCa3.1 (HEK-KCa3.1). Initially, we confirmed our results from HBEs, using whole-cell recordings, as above. […] In seven experiments, this inhibition averaged 58 ± 7% (P < 0.005). […] It is well recognized that drugs are carried to their targets in the blood bound to albumin, which ranges from 3.4 to 5.4%. Thus, we determined whether VX-445 (10 µM) would inhibit KCa3.1 expressed in HEK cells in the presence of 3.4% albumin. In four experiments, VX-445 inhibited an average of 51 ± 17% of the whole-cell KCa3.1 current, which is not different from that observed in the absence of albumin. To confirm the direct effect of VX-445 on KCa3.1, we utilized the excised, inside-out patch-clamp technique. The patch was then exposed to DCEBIO (100 µM) to further activate the channels ([34–37])—analogous to our Isc studies in HBEs. […] In three experiments, VX-445 inhibited an average of 63 ± 6% of the KCa3.1 current. Based on these experiments, we determined the apparent inhibitory constant, Ki for VX-445. For these experiments, patches were excised into saturating Ca^2+ (3 µM) to ensure maximal KCa3.1 activation. These studies were carried out in the absence of DCEBIO to eliminate the possibility that the inhibition observed was due to competition for the DCEBIO-binding site.\n(§2) HEK cells stably expressing KCa3.1 (IK1, SK4), KCa2.3 (SK3), and KCa2.2 (SK2) were generated and cultured as previously described by us ([37], [66–71]).\n(§3) HEK cells expressing the channel of interest were plated onto poly-L-lysine-coated glass coverslips 1–2 days prior to patch-clamp analysis. Electrophysiological recordings in the excised, inside-out, and whole-cell patch-clamp configurations were performed as recently described ([14]). For excised patch-clamp recordings, the pipette solution contained (in mM): 140 K-gluconate, 5 KCl, 1 CaCl2, 1 MgCl2, and 10 HEPES. The pH was adjusted to 7.2 with KOH. The bath solution contained (in mM): 145 K-gluconate, 5 KCl, 1.3 MgCl2, 10 HEPES, and 1 EGTA. Sufficient CaCl2 was added to obtain the desired free Ca^2+ concentration at a pH of 7.2 (adjusted with KOH). When recording KCa3.1 channels, ATP (300 µM) was added to the bath to diminish channel rundown ([73]). All recordings were carried out at a voltage of −100 mV, referenced to the extracellular compartment, as is standard. The apparent Ki and Hill coefficient for each CFTR corrector on KCa3.1, KCa2.3, and KCa2.2 were determined during a continuous recording by step-wise addition of increasing concentrations of compound and fitting the resultant relative remaining current to a Hill equation (Prism v. 10.1.0). The zero current level was determined by the addition of a 0 Ca^2+ solution (zero-added Ca^2+ plus 1 mM EGTA) at the end of the experiment. In the case of KCa3.1, TRAM-34, a known inhibitor of KCa3.1 ([45]), was used to confirm expression of the channel. For whole-cell experiments, pipettes contained (in mM): 145 K-gluconate, 10 EGTA, 7.5 CaCl2, 2 MgCl2, 3 mM NaATP, and 10 HEPES. The bath solution contained (in mM): 140 K-gluconate, 5 KCl, 1.0 MgCl2, 10 HEPES, and 2 CaCl2. Current–voltage relationships were determined by stepping from a holding potential of −80 mV to +80 mV in 20 mV increments for 400 ms. […]"}, "[3]": {"system": "primary WT CFTR-expressing HBEs", "test": "Ussing chamber Isc, forskolin-stimulated Cl- secretion", "format": "cell-based, human", "conditions": "for effect on the bumetanide-insensitive current: applied after forskolin and bumetanide, VX-445 10 µM, acetazolamide 1 µM", "text": "(§4) Primary human bronchial epithelial cells (HBEs) were collected from unused or discarded samples from the Center for Organ Recovery and Education via the University of Pittsburgh Pulmonary, Allergy, Critical Care, and Sleep Medicine Lung Biobank and Repository. All experimental procedures involving the use of HBEs were approved by the institutional review board (IRB STUDY19090084) and the Committee for Oversight of Research and Clinical Training Involving Decedents (CORID number 451) at the University of Pittsburgh. At all times, authors were blind to the identity of HBE donors. HBEs were cultured using the Vertex method ([72]). Studies were carried out on WT CFTR HBEs from 11 ([13]) donors and homozygous F508del/F508del CFTR HBEs from five ([5]) separate donors. HBEs were plated on Costar Transwell permeable supports ([…], 6.5 mm insert, polyester membrane, Corning) and grown at an air–liquid interface for 5+ weeks in HBE differentiation medium containing 2% Ultroser-G. Basolateral media were replaced three times per week. For whole-cell patch-clamp studies, HBEs were maintained in BronchiaLife airway media (LifeLine Cell Technology, LS-1047) and plated onto poly-L-lysine-coated coverslips (see below).\n(§5) Costar Transwell inserts were mounted in a modified Ussing chamber (P2300, Physiologic Instruments) and the monolayers continuously short-circuited (VCC MC8, Physiologic Instruments) by forcing the transepithelial voltage to 0 mV. Short-circuit current (Isc) measurements were taken in symmetric solutions, containing (in mM): 120 NaCl, 25 NaHCO3, 3.3 KH2PO4, 0.8 K2HPO4, 1.2 CaCl2, 1.2 MgCl2, and 10 glucose. The pH of the solution is 7.4 when gassed with 95% O2–5% CO2 at 37°C. Compounds were added cumulatively following the establishment of a new stable current response. Amiloride was added to the apical membrane, while all other compounds were added to both membranes due to their lipophilic nature. In all experiments, 10 µM amiloride was used to inhibit sodium absorption. Percent inhibition was calculated as the change in Isc (ΔIsc) between the forskolin or DCEBIO stable current level and the Isc following addition of the compound being assessed divided by the ΔIsc between the stable forskolin- or DCEBIO-induced Isc and the Isc following bumetanide addition."}, "[4]": {"biological_target": "T2, endogenous KCa3.1 in WT CFTR-expressing HBEs (Homo sapiens, UniProt O15554)", "T2 construct": "endogenous in cells; host or cells: undifferentiated primary human bronchial epithelial cells (WT CFTR donors)", "test": "Whole-cell patch-clamp on undifferentiated HBEs", "format": "cell-based", "conditions": "TRAM-34 subsequent to VX-445, Fig 3C single cells", "procedure": "as §1\nPrimary human bronchial epithelial cells (HBEs) were collected from unused or discarded samples from the Center for Organ Recovery and Education via the University of Pittsburgh Pulmonary, Allergy, Critical Care, and Sleep Medicine Lung Biobank and Repository. All experimental procedures involving the use of HBEs were approved by the institutional review board (IRB STUDY19090084) and the Committee for Oversight of Research and Clinical Training Involving Decedents (CORID number 451) at the University of Pittsburgh. At all times, authors were blind to the identity of HBE donors. HBEs were cultured using the Vertex method ([72]). Studies were carried out on WT CFTR HBEs from 11 ([13]) donors and homozygous F508del/F508del CFTR HBEs from five ([5]) separate donors. […]"}, "[5]": {"biological_target": "T1, KCa3.1", "test": "Excised inside-out patch-clamp on HEK-KCa3.1", "format": "biochemical", "conditions": "TRAM-34 3 µM after DCEBIO and VX-445 10 µM", "procedure": "as §1, §2, §3"}, "[6]": {"system": "WT CFTR HBEs", "test": "Ussing chamber Isc, DCEBIO-induced Cl- secretion", "format": "cell-based, human", "text": "as §4, §5"}},
  "note": "Several values for one entry are separate records, joined by “and”; a condition that tells them apart may be missing. Equal entries are not always repeated. Entries after “also recorded” stand apart in the source; their conditions may differ.",
  "data": [
    {"smiles": "CC(C)(C)c1cc(C(C)(C)C)c(NC(=O)c2c[nH]c3ccccc3c2=O)cc1O", "note": "[VX-770, ivacaftor]", "values": [
      {"measurement": "effect on BKCa", "setting": "[1]", "result": "had no effect"}
    ]},
    {"smiles": "CC1(C)C[C@@H]2CCCNc3cccc(n3)S(=O)(=O)NC(=O)c3ccc(-n4ccc(OCCC5C6(CC6)C56CC6)n4)nc3N1C2", "note": "[VX-121, vanzacaftor]", "values": [
      {"measurement": "effect on BKCa", "setting": "[1]", "result": "act as direct potentiators"},
      {"measurement": "inhibition at 10 µM", "setting": "[2]; HEK293, VX-121 10 µM, three experiments, read-out: inhibition of whole-cell KCa3.1 current", "result": "85 ± 8", "unit": "%"}
    ]},
    {"smiles": "CC(=O)Nc1nnc(S(N)(=O)=O)s1", "note": "[acetazolamide]", "values": [
      {"measurement": "effect on the bumetanide-insensitive current", "setting": "[3]", "result": "partially inhibited the remaining current"}
    ]},
    {"smiles": "CC(C)(O)[C@H]1O[C@H]2CC[C@@]3(C)[C@@](O)(CC[C@H]4Cc5c([nH]c6ccccc56)[C@@]43C)C2=CC1=O", "note": "[paxilline]", "values": [
      {"measurement": "Isc in the presence of paxilline", "setting": "[3]; Fig 2B, single filters, paxilline 10 µM after forskolin and VX-445", "result": "12 and 11 and 15 and 20 and 21 and 19 and 14"},
      {"measurement": "effect on Isc subsequent to VX-445-induced decrease", "setting": "[3]; paxilline 10 µM after forskolin and VX-445 10 µM", "result": "had no effect"}
    ]},
    {"smiles": "Clc1ccccc1C(c1ccccc1)(c1ccccc1)n1cccn1", "note": "[TRAM-34]", "values": [
      {"measurement": "whole-cell current normalized to cell capacitance", "setting": "[4]; -40 mV", "result": "0.875 and 0.576"},
      {"measurement": "whole-cell current normalized to cell capacitance", "setting": "[4]; -60 mV", "result": "0.344 and 0.305"},
      {"measurement": "whole-cell current normalized to cell capacitance", "setting": "[4]; -80 mV", "result": "0.0478 and 0.0385"},
      {"measurement": "effect on forskolin-stimulated Isc", "setting": "[3]; TRAM-34 5 µM, no VX-445", "result": "inhibits a portion of the current"},
      {"measurement": "effect on forskolin-stimulated Isc following VX-445", "setting": "[3]; TRAM-34 after VX-445 10 µM", "result": "failed to inhibit additional current"},
      {"measurement": "effect on the bumetanide-insensitive current", "setting": "[3]", "result": "failed to decrease"},
      {"measurement": "effect on current remaining after VX-445", "setting": "[2]; TRAM-34 1 µM after VX-445 10 µM", "result": "inhibited the remainder of the current"},
      {"measurement": "effect on current remaining after VX-445", "setting": "[5]", "result": "inhibited the remainder of the current"},
      {"measurement": "effect on DCEBIO-stimulated Isc", "setting": "[6]; TRAM-34 5 µM, DCEBIO 100 µM, no VX-445", "result": "inhibits the DCEBIO-stimulated Isc response"},
      {"measurement": "effect on DCEBIO-stimulated Isc following VX-445", "setting": "[6]; TRAM-34 after DCEBIO and VX-445 10 µM", "result": "had little effect"}
    ]},
    {"smiles": "CCCCNc1cc(C(=O)O)cc(S(N)(=O)=O)c1Oc1ccccc1", "note": "[bumetanide]", "values": [
      {"measurement": "Isc in the presence of bumetanide", "setting": "[3]; Fig 1F, single filters, after forskolin", "result": "21 and 18 and 15 and 17 and 14 and 19 and 23 and 20"}
    ]},
    {"smiles": "C=C[C@@]1(C)CC(=O)[C@]2(O)[C@@]3(C)[C@@H](O)CCC(C)(C)[C@@H]3[C@H](O)[C@H](OC(C)=O)[C@@]2(C)O1", "note": "[forskolin]", "values": [
      {"measurement": "Isc in the presence of forskolin", "setting": "[3]; Fig 1F, single filters", "result": "31 and 30 and 24 and 28 and 26 and 34 and 27 and 32"},
      {"measurement": "Isc in the presence of forskolin", "setting": "[3]; Fig 2B, single filters", "result": "17 and 18 and 23 and 24 and 19 and 21"}
    ]},
    {"smiles": "Cc1ccc(NC(=O)C2(c3ccc4c(c3)OC(F)(F)O4)CC2)nc1-c1cccc(C(=O)O)c1", "note": "[VX-809]", "values": [
      {"measurement": "effect on KCa3.1 current", "setting": "[2]", "result": "failed to inhibit"}
    ]},
    {"smiles": "CC(C)(CO)c1cc2cc(NC(=O)C3(c4ccc5c(c4)OC(F)(F)O5)CC3)c(F)cc2n1C[C@@H](O)CO", "note": "[VX-661, tezacaftor]", "values": [
      {"measurement": "effect on BKCa", "setting": "[1]", "result": "had no effect"},
      {"measurement": "effect on forskolin-mediated Cl- secretion", "setting": "[3]; VX-661 10 µM", "result": "had no effect"},
      {"measurement": "effect on KCa3.1 current", "setting": "[2]", "result": "had no effect; also recorded: failed to inhibit"}
    ]}
  ]
}
